Reference: ChEMBL document CHEMBL3871301, “Biotransformation of isofraxetin-6-O-β-d-glucopyranoside by Angelica sinensis (Oliv.) Diels callus” (Bioorg Med Chem Lett, 2017)

Key:
cells = conditions: Mus musculus, BV-2, 24 h
Description: Antineuroinflammatory activity in mouse BV2 cells assessed as inhibition of LPS-induced NO production after 24 hrs in presence of LPS by Griess reaction based assay

Mus musculus = species: Mus musculus; test: Cytotoxicity against mouse BV2 cells assessed as reduction in cell viability at antineuroinflammatory IC50 after 24 hrs in presence of LPS by MTT assay; type: toxicity, cell-based; conditions: bv-2, 24 h

SMILES | IC50 (cells) [µM] | Activity (Mus musculus)
COc1ccc(Cc2ccc(OC)cc2)cc1 | 1.22 | Non-Toxic
COc1cc2oc(=O)ccc2c(O)c1O | > 100 | 
O=c1cc[nH]c(=O)[nH]1 [URACIL] | > 100 | 
COc1cc2c(c(OC)c1OC)-c1c(cc3c(c1OC)OCO3)C[C@H](C)[C@H](C)C2 [WUWEIZISU B] | > 100 | 
COc1cc([C@H]2Oc3c(OC)cc4ccc(=O)oc4c3O[C@@H]2CO)ccc1O [CLEOMISCOSIN A] | > 100 | 
COc1cc2c(c(OC)c1OC)-c1c(cc(OC)c(OC)c1OC)C[C@@](C)(O)[C@@H](C)C2 | > 100 | 
COc1cc2ccc(=O)oc2c(OC)c1O | > 100 | 
COc1cc([C@@H]2COc3c(c(OC)cc4ccc(=O)oc34)O2)ccc1O | > 100 | 
COC(=O)Nc1ccc(C)c(NC(=O)OC)c1 | 10.6 | Non-Toxic
CN(C)c1ccc(O)c2c1C[C@H]1C[C@H]3[C@H](N(C)C)C(O)=C(C(N)=O)C(=O)[C@@]3(O)C(O)=C1C2=O [MINOCYCLINE] | 35.8 | 
NC(=O)Cc1ccccc1 | > 100 | 
O=Cc1c[nH]c2ccccc12 [3-FORMYLINDOLE] | 0.76 | Non-Toxic
